Experimental data: publication PMC4977753, “Inhibition of ADAM10 promotes the clearance of Aβ across the BBB by reducing LRP1 ectodomain shedding” (Fluids and Barriers of the CNS, 2016)

What was measured:
[1] = tested on: in vitro BBB model (HBMEC monolayer); assay: Fluorescein-Aβ42 transit across an in vitro BBB model; assay type: cell-based, human; conditions: fluorescein-Aβ42 2 μM basolateral, 60 min, 37 °C, basolateral-to-apical, n = 3
Protocol: The impact of ADAM10 on Aβ42 transcytosis was assessed using an in vitro BBB model previously described by our group. HBMECs were seeded onto fibronectin-coated 24-well membrane inserts forming a polarized monolayer representing the BBB. Aβ transcytosis across the BBB was assessed by exposing the basolateral side (“brain”) to 2 μM fluorescein-Aβ42 (rPeptide, USA) and treating the apical side (“blood”) with the ADAM10-selective inhibitor GI254023X (0.1–1 μM). After 60 min of incubation at 37 °C, samples were collected from the apical compartment to assess the basolateral-to-apical transcytosis of fluorescein-Aβ across the BBB model.
Fig. 2 Fluorescin-Aβ42 transit across an in vitro BBB model following ADAM10 inhibition. Fluorescin-Aβ42 (2 μM) was exposed to the basolateral (“brain”) side of the in vitro BBB model, while various concentrations of the ADAM10 inhibitor GI254023X (0, 0.1, 1, and 10 μM) were exposed to the apical (“blood”) compartment. Following incubation at 37 °C, samples were collected from the […] at 60 min to assess the basolateral-to-apical transcytosis of fluorescin-Aβ42 across the BBB model. Values represent mean ± SEM (n = 3) and are expressed as the percentage change from control conditions. *p < 0.05; **p < 0.01; ***p < 0.001 as determined by one-way ANOVA followed by Tukey’s post hoc analysis

mice = conditions: 200 mg/kg i.p. once per day for 5 consecutive days; cited from earlier work
Protocol: PSAPP mice at 35 weeks of age were injected intraperitoneally with 200 mg/kg of GI254023X or vehicle (DMSO) once per day for 5 consecutive days. At this age, PSAPP mice display elevated levels of Aβ peptides in the brain [22]. […] One hour after the final injection, the mice were euthanatized and plasma and brain tissue were collected. The right hemisphere was used to examine the levels of soluble and insoluble Aβ40 and Aβ42 in the brain. ...

PSAPP mice [2] = assay: Aβ, soluble LRP1 and sAPPα levels in PSAPP mice following ADAM10 inhibition; assay type: in vivo, mouse; conditions: 200 mg/kg i.p. once per day for 5 days
Protocol: PSAPP mice at 35 weeks of age were injected intraperitoneally with 200 mg/kg of GI254023X or vehicle (DMSO) once per day for 5 consecutive days. At this age, PSAPP mice display elevated levels of Aβ peptides in the brain [22]. […] One hour after the final injection, the mice were euthanatized and plasma and brain tissue were collected. The right hemisphere was used to examine the levels of soluble and insoluble Aβ40 and Aβ42 in the brain. Briefly, the hemispheres were homogenized by sonication in 700 μl lysis buffer [M-PER + 1 % EDTA +0.2 % PMSF (Thermo Scientific, USA)] supplemented with Halt protease and phosphatase inhibitor cocktail (Thermo Scientific, USA) on ice before centrifugation at 14000g for 30 min at 4 °C. 100 μl of the resulting supernatant was mixed with 5 M guanidine in TRIS buffer resulting in the guanidine soluble (GS) fraction. For the guanidine insoluble (GI) fraction, 100 μl of the guanidine stock was combined with the original tissue pellet. Both GS and GI fractions were subsequently incubated at room temperature for 1 h and were mixed every 15 min. All samples were stored at −80 °C prior to analysis. Quantification of Aβ40 and Aβ42 in the GS, GI, and plasma fractions was determined using an ELISA for human Aβ40 and Aβ42 (Invitrogen, USA) and expressed as ng of Aβ per μg total protein. The left hemisphere was used to examine the levels of soluble LRP1 in the brain. Here, the hemisphere was homogenized using a Dounce homogenizer in ice cold in HBSS using the same procedure as the in vivo LRP1 shedding studies above. LRP1 levels in the soluble brain fraction and plasma were assessed using a mouse ELISA for LRP1 (Cedar Lane Labs, USA). Soluble brain LRP1 was normalized to the total protein content in the brain homogenate as determined by the BCA protein assay (Thermo Scientific, USA). Soluble brain LRP1 levels were expressed as ng of LRP1 per mg protein. Plasma LRP1 levels were expressed as ng/ml. In addition, sAPPα levels were examined in the brain homogenate of these same animals using an ELISA for sAPPα (IBL international, USA). The sAPPα levels were normalized to the total protein content in the brain homogenate as determined by the BCA protein assay and expressed as ng of sAPPα per mg protein.
Fig. 4 LRP1 shedding brain and plasma following ADAM10 modulation in a mouse model of AD. The ADAM10 inhibitor GI254023X (200 mg/kg) or vehicle (DMSO) was administered via intraperitoneal injection once per day for five consecutive days to PSAPP mice (35 weeks of age). One hour after the final injection, the brains and plasma was collected and the soluble brain fraction a and the plasma b was probed for LRP using an ELISA. Values represent mean ± SEM (n = 8–9 [soluble brain LRP1] or 5 [soluble plasma LRP1]) and are expressed as the amount of LRP per mg total protein or per ml. *p < 0.05 as determined by an unpaired t test
Fig. 5 Levels of sAPPα in the brain following ADAM10 modulation in a mouse model of AD. PSAPP mice (35 weeks of age) were treated in an acute 5-day treatment paradigm with ADAM10 inhibitor GI254023X (200 mg/kg) or vehicle (DMSO) which were administered via intraperitoneal injection. One hour after the final treatment, the brains were collected and sAPPα in the whole brain homogenate was probed using an sAPPα ELISA. Values represent mean ± SEM (n = 8–9) and are expressed as the amount of sAPPα per mg total protein. Statistical significance determined by an unpaired t test
Fig. 6 Aβ plasma levels following ADAM10 modulation in a mouse model of AD. The ADAM10 inhibitor GI254023X (200 mg/kg) or vehicle (DMSO) was administered via intraperitoneal injection once per day for five consecutive days to PSAPP mice (35 weeks of age). One hour after the final injection, the plasma was collected and probed for a Aβ40 and b Aβ42 by ELISA. Values represent mean ± SEM (n = 8–9) and are expressed as the amount of Aβ40 or Aβ42 per ml of plasma. […]

[3] = tested on: LRP1 shedding in human brain endothelial cells (HBMEC); assay: In vitro LRP1 shedding in HBMEC monolayers (LRP1 ELISA of extracellular media); assay type: cell-based; conditions: 48 h, 37 °C
Protocol: Human Brain Microvessel endothelial cells (HBMECs) (ScienCell, USA) were seeded at 50,000 cells per cm^2 onto fibronectin-coated 6-well plates as previously described by our group. When approximately 90 % confluent, cells were treated with Aβ42 (2 μM) or both Aβ42 and the ADAM10-selective inhibitor GI254023X (1 μM) (Sigma-Aldrich, USA) and incubated at 37 °C for 48 h. […] After the 48 h incubation, the extracellular media was collected and the level of soluble LRP1 was assessed using an ELISA for LRP1 (Cat# SEB010Hu, Cedar Lane Labs, USA).
Fig. 1 LRP1shedding in human brain endothelial cells (HBMEC) following ADAM10 inhibition. HBMEC monolayers were exposed to human Aβ42 (2 μM) alone, Aβ42 (2 μM) and the ADAM10 inhibitor GI254023X (1 μM) for 48 h at 37 °C. LRP shedding was assessed by examining LRP content in the extracellular media using an LRP1 ELISA. Values represent mean ± SEM (n = 3) and are expressed as ng of extracellular LRP1 per ml of media. *p < 0.05 as determined by one-way ANOVA followed by Tukey’s post hoc analysis

PSAPP mice [4] = assay: Tolerability of the GI254023X treatment regimen in PSAPP mice; assay type: in vivo; conditions: 200 mg/kg i.p. once per day for 5 days
Protocol: PSAPP mice at 35 weeks of age were injected intraperitoneally with 200 mg/kg of GI254023X or vehicle (DMSO) once per day for 5 consecutive days. At this age, PSAPP mice display elevated levels of Aβ peptides in the brain [22]. […] One hour after the final injection, the mice were euthanatized and plasma and brain tissue were collected. The right hemisphere was used to examine the levels of soluble and insoluble Aβ40 and Aβ42 in the brain. […] Quantification of Aβ40 and Aβ42 in the GS, GI, and plasma fractions was determined using an ELISA for human Aβ40 and Aβ42 (Invitrogen, USA) and expressed as ng of Aβ per μg total protein. […] LRP1 levels in the soluble brain fraction and plasma were assessed using a mouse ELISA for LRP1 (Cedar Lane Labs, USA). Soluble brain LRP1 was normalized to the total protein content in the brain homogenate as determined by the BCA protein assay (Thermo Scientific, USA). Soluble brain LRP1 levels were expressed as ng of LRP1 per mg protein. Plasma LRP1 levels were expressed as ng/ml. […] The sAPPα levels were normalized to the total protein content in the brain homogenate as determined by the BCA protein assay and expressed as ng of sAPPα per mg protein.

[5] = tested on: in vitro BBB model (HBMEC monolayer); assay: Permeability of paracellular marker Lucifer yellow-dextran across the in vitro BBB model (integrity control); assay type: cell-based, human; conditions: 10 kDa Lucifer yellow-dextran, any of the GI254023X concentrations, data not shown
[6] = PSAPP mice, guanidine insoluble fraction, ELISA, n = 8-9, not statistically significant
[7] = PSAPP mice, guanidine soluble fraction, ELISA, n = 8-9, not statistically significant

| Compound | transcytosis of fluorescein-Aβ across in vitro BBB model (trend) ([1]; GI254023X 0.1, 1, 10 μM apical) | increase of fluorescein-Aβ transcytosis across in vitro BBB model versus control ([1]; significant increases at concentrations higher than 1 μM GI254023X) [fold] | ADAM10 activity in mice under this treatment regime (mice) | tolerability of treatment regime (mice) | reduction of soluble LRP1 in the brain versus vehicle (PSAPP mice [2]; PSAPP mice 35 weeks, 1 h after final injection, soluble brain fraction, ELISA, n = 8-9, p < 0.05) [%] | reduction of insoluble Aβ40 in the brain versus vehicle (PSAPP mice [2]; [6]) [fold] | reduction of insoluble Aβ42 in the brain versus vehicle (PSAPP mice [2]; [6]) [fold] | reduction of soluble Aβ40 in the brain versus vehicle (PSAPP mice [2]; [7]) [fold] | reduction of soluble Aβ42 in the brain versus vehicle (PSAPP mice [2]; [7]) [fold] | LRP1 levels in the plasma versus vehicle (PSAPP mice [2]; PSAPP mice, plasma, ELISA, n = 5) | effect on Aβ42 plasma levels versus vehicle (PSAPP mice [2]; PSAPP mice, plasma, ELISA, n = 8-9) | increase of Aβ40 in the plasma versus vehicle (PSAPP mice [2]; PSAPP mice, plasma, ELISA, n = 8-9, significant) [fold] | level of sAPPα in the brain versus vehicle (PSAPP mice [2]; PSAPP mice, whole brain homogenate, sAPPα ELISA, n = 8-9) | effect on Aβ42-induced extracellular LRP1 shedding ([3]; Aβ42 2 μM plus GI254023X 1 μM, n = 3) | tolerability of treatment regimen (appearance, behavior, weight loss) (PSAPP mice [4]) | BBB permeability of the paracellular marker Lucifer yellow-dextran versus control [5] | extracellular shedding of LRP1 compared to control conditions ([3]; Aβ42 2 μM, mean ± SEM n = 3, significant (p < 0.05)) |
| --- | --- | --- | --- | --- | --- | --- | --- | --- | --- | --- | --- | --- | --- | --- | --- | --- | --- |
| CNC(=O)[C@@H](NC(=O)[C@H](CCCc1ccccc1)[C@H](C)N(O)C=O)C(C)(C)C [GI254023X] | increased following GI254023X treatment in a dose dependent manner | ≥ 1.25 | effectively inhibit ADAM10 activity | well tolerated with no adverse effects reported | 60 | 1.20 | 1.20 | 1.15 | 1.25 | not significantly different | not significant | 1.45 | No significant difference | completely abrogated the effect of Aβ42 on shedding | well tolerated | no significant difference | – |
| Aβ42: human recombinant beta-amyloid 42 peptide, used to induce LRP1 shedding; fluorescein-labeled form used as transport probe | – | – | – | – | – | – | – | – | – | – | – | – | – | – | – | – | twofold |
